In paper PMC12074596, “The histone deacetylase inhibitor CT-101 flips the switch to fetal hemoglobin expression in sickle cell disease mice” (PLOS One, 2025):

Key:
HbF [1] = test: Immuno-histology of spleen with FITC anti-HbF antibody in SCD mice; format: in vivo, Townes SCD mice; conditions: end of four-week treatment
Method: (§1) At the end of the 4-week treatment period, approximately 700 μL of blood was collected from each mouse into K3-EDTA tubes (Becton Dickinson, Franklin Lakes, NJ; catalog #365974) by cardiac puncture for plasma isolation after euthanasia using carbon dioxide gas. Subsequently, spleens were harvested for tissue stains, immunohistology, and protein isolation. A part of the spleen was fixed with buffered formaldehyde, embedded in paraffin, and sectioned into ~[…] thick slices for staining with hematoxylin and eosin for histology of spleen structures using a Keyence microscope (Keyence Itasca, IL). The immuno-histology staining was performed on frozen spleen sections using sheep polyclonal antibody against HbF conjugated with FITC (Life Technologies Corporation; catalog #A80-136F) and counterstained with DAPI (4′,6-diamidino-2-phenylindole) to identify the cell nucleus. The spleen tissue was analyzed using the EVOS cell imaging system (ThermoFisher, Waltham, MA) under x40 magnifications. The FITC-positive cells were counted for 15 high-power fields per section, and the mean average of the fields was used for statistical analysis.

HbF [2] = test: Flow cytometry of F-cells and MFI in peripheral blood of β-YAC mice; format: in vivo, β-YAC transgenic mice; conditions: Study 1; HU 100 mg/kg; week 4; p < 0.001
Method: (§2) Each treatment group consisted of six mice per group (3 males and 3 females), and data was combined for 2 replicates for statistical analysis (n = 12). We collected tail vein blood at weeks 0, 2, and 4 and analyzed complete blood counts and differentials using an automated Micros 60 device (HORIBA Medical/ABX Diagnostics, Irvine, CA). The level of F-cells and mean fluorescence intensity (MFI) was determined by flow cytometry as previously published [28].
Flow cytometry was conducted on the FACSCanto machine (BD Biosciences, San Jose, CA) using gating parameters previously published by our group [28]. Briefly, the forward scatter and side scatter were set to gate erythroid cells, then during FLOWJO analysis, ‘log F-cell’‘ histograms (X-axis) generated to measure the percentage of HbF positive cells (F-cells) from total erythroid cells (Y-axis) after gating on the negative isotype control cells. The mean fluorescence intensity (MFI) to quantify the level of HbF protein per cell was generated by FLOWJO software.

β-YAC transgenic mice = test: Complete blood counts, differentials and reticulocytes in β-YAC mice (Studies 1 and 2); format: in vivo, mouse
Method: as §2

Townes SCD mice [3] = test: Complete blood counts, differentials and reticulocytes in SCD mice (Study 3); format: in vivo, mouse; conditions: HU 100 mg/kg; throughout the study; p < 0.01
Method: The study period was 4 weeks, and two independent replicates were combined for statistical analysis (n = 8–12). Blood collected at weeks 0, 2, and 4 were analyzed for complete blood count and differential, and F-cells and MFI quantified by flow cytometry. Blood stained with acridine orange (BD retic-count reagent) quantified reticulocytes by flow cytometry [31].

Townes SCD mice [4] = test: Survival, weight and behavior of SCD mice (Study 3); format: in vivo, mouse; conditions: both replicates combined
Method: The study design was the same as in Studies 1 and 2, using SCD mice (4–6 months old) dosed once daily by IP injections, with water, HU (100 mg/kg), vehicle (FORM 3), CT-101 in FORM-3 (10 mg/kg), and combined HU and CT-101 administration. The study period was 4 weeks, and two independent replicates were combined for statistical analysis (n = 8–12). Blood collected at weeks 0, 2, and 4 were analyzed for complete blood count and differential, and F-cells and MFI quantified by flow cytometry. Blood stained with acridine orange (BD retic-count reagent) quantified reticulocytes by flow cytometry [31].

spleen = test: Spleen size and hematoxylin and eosin histology in SCD mice; format: in vivo, Townes SCD mice
Method: as §1

micronuclei = test: Micronuclei assay in SCD mouse blood; format: in vivo, Townes SCD mice; conditions: end of treatment; p < 0.05
Description: DNA was stained with propidium iodide/phycoerythrin for simultaneous measurement of cell viability, followed by FACSCAN flow cytometry analysis. Propidium iodide/phycoerythrin supplied in the MN analysis kit (Litron Laboratories, Rochester, NY; catalog #PLUS-M) was used as a positive control for CD71-FITC; the number of MN positive cells were counted in cell positive for CD71 and MN as previously published.

histone H3 and H4 = test: Western blot of histone acetylation in spleen of SCD mice; format: in vivo, Townes SCD mice; conditions: end of treatment
Method: The total splenic cells were processed for histone acetylation levels by Western blot as previously published by our group.
Acidic histone extraction was performed according to standard protocols described previously by our group. […] Western blot quantitative data were collected by densitometry analysis using Image J software.

HbF expression = tested on: HbF expression; set-up: method as in PMID 26045597; conditions: adults with SCD; cited from earlier work
[5] = Study 1, HU 100 mg/kg IP five days a week for four weeks

| SMILES | increase in HbF-positive erythroid cells in spleen tissue (HbF [1]) [fold] | increase in F-cells (HbF [2]) [fold] | change in reticulocyte counts (β-YAC transgenic mice; Study 1, HU 100 mg/kg) | decrease in hematocrit (β-YAC transgenic mice; [5]) [%] | decrease in hemoglobin (β-YAC transgenic mice; [5]) [%] | decrease in platelets (β-YAC transgenic mice; [5]) [%] | decrease in total white cell counts (β-YAC transgenic mice; [5]) [%] | change in mean corpuscular volume of RBCs (β-YAC transgenic mice; Study 1, HU 100 mg/kg, p < 0.001) | effect on total white blood counts and platelets (β-YAC transgenic mice; Study 2, HU 100 mg/kg alone or with CT-101 10 mg/kg) | decrease in platelet counts (Townes SCD mice [3]) [%] | survival (Townes SCD mice [4]) [%] | decrease in overall spleen size (spleen; HU 100 mg/kg, four weeks, p < 0.01) [%] | spleen histology (hematoxylin and eosin) (spleen; end of four-week treatment) | increased production of micronuclei (micronuclei) [fold] | change in total or acetylated histone H3 and H4 levels in spleen (histone H3 and H4) | HbF expression (HbF expression) |
| --- | --- | --- | --- | --- | --- | --- | --- | --- | --- | --- | --- | --- | --- | --- | --- | --- |
| NC(=O)NO [HU, hydroxyurea] | 1.8 | 5.4 | increase | 12 | 12 | 30 | 24 | increasing | decrease | 50 | 83 | 37 | decrease in hemorrhagic infarcts and maturing extramedullary hematopoiesis | 1.8 | not statistically significance differences | – |
| O=C(CCCCCCC(=O)Nc1ccccc1)NO [Vorinostat] | – | – | – | – | – | – | – | – | – | – | – | – | – | – | – | did not induce HbF expression |
